Experimental data reported in PubChem BioAssay (NCI).
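Grown in 96-well plates, cells were treated for 48 hours with each compound at five concentrations. Insufficient inhibition: endpoint recorded as highest concentration tested. GI50 marks 50% less growth. TGI: total growth inhibition.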

Key:
Test in all cases: growth of human tumour cells (NCI), 48 h
DU-145 prostate = system: DU-145 prostate
EKVX NSCLC = system: EKVX NSCLC
SF-539 CNS = system: SF-539 CNS
TK-10 renal = system: TK-10 renal
A498 renal = system: A498 renal
HCT-15 colon = system: HCT-15 colon
SK-MEL-2 melanoma = system: SK-MEL-2 melanoma
SF-268 CNS = system: SF-268 CNS
UACC-257 melanoma = system: UACC-257 melanoma
HL-60(TB) leukemia = system: HL-60(TB) leukemia

Structure (SMILES) | TGI (DU-145 prostate) | TGI (EKVX NSCLC) | TGI (SF-539 CNS) | TGI (TK-10 renal) | TGI (A498 renal) | TGI (HCT-15 colon) | TGI (SK-MEL-2 melanoma) | TGI (SF-268 CNS) | TGI (UACC-257 melanoma) | GI50 (DU-145 prostate) | GI50 (SF-539 CNS) | GI50 (TK-10 renal) | GI50 (A498 renal) | GI50 (HCT-15 colon) | GI50 (SF-268 CNS) | GI50 (UACC-257 melanoma) | GI50 (HL-60(TB) leukemia) | TGI (HL-60(TB) leukemia) | GI50 (EKVX NSCLC) | GI50 (SK-MEL-2 melanoma)
O=C(O)c1ccccc1-c1ccccc1C(=O)Nc1ccc2c(c1)Cc1ccccc1-2 | > 100 µM | 54.8 µM | 44.6 µM | > 100 µM | 44 µM | 56 µM | 50.7 µM | > 100 µM | 78.3 µM | – | – | – | – | – | – | – | – | – | – | –
C/C(=C\CCc1ccsc1)CC/C=C(\C)CCCN1CCN(CCO)CC1 | 19.6 µM | – | 13.9 µM | 7.34 µM | 7.51 µM | 6.31 µM | – | 19.8 µM | 16 µM | 6.96 µM | 3.41 µM | 2.5 µM | 2.45 µM | 2.42 µM | 5.44 µM | 4.57 µM | 2.01 µM | 4.14 µM | – | –
COc1ccccc1NC(=O)CC(=O)n1nc(-c2ccccc2)c(N=Nc2ccccc2[N+](=O)[O-])c1-c1ccccc1 | – | > 100 µM | > 100 µM | > 100 µM | – | – | > 100 µM | > 100 µM | > 100 µM | – | – | – | – | – | – | – | – | > 100 µM | – | –
COC(=O)CSc1n[nH]c(-c2ccccc2)n1 | – | > 100 µM | > 100 µM | > 100 µM | > 100 µM | > 100 µM | > 100 µM | > 100 µM | > 100 µM | – | – | – | – | – | – | – | – | > 100 µM | – | –
CC(N)CN.CC(N)CN.[Cl-].[O]=[Os+2]=[O] (stereo unspecified) | – | > 100 µM | > 100 µM | > 100 µM | – | > 100 µM | > 100 µM | > 100 µM | – | – | > 100 µM | > 100 µM | – | > 100 µM | 77.3 µM | – | – | – | > 100 µM | > 100 µM
CN(C)CCCNC(=O)c1cccc2nc3ccccc3nc12 | – | > 77.4 µM | 54.2 µM | > 100 µM | 39.6 µM | > 82.4 µM | 29 µM | 39.9 µM | 19.5 µM | – | – | – | – | – | – | – | – | – | – | –
COc1cc(-c2nccc3[nH]c(-c4cccc5[nH]ccc45)nc23)cc(OC)c1OC | 15.6 µM | 22 µM | 0.0139 µM | 24.8 µM | – | 12 µM | 23.5 µM | 16 µM | – | < 0.01 µM | < 0.01 µM | 12.1 µM | – | < 0.01 µM | < 0.01 µM | – | < 0.01 µM | < 0.01 µM | 0.0186 µM | < 0.01 µM
COc1ccc(/C=c2\sc3nnc(CCC(=O)Nc4cccc(C(F)(F)F)c4)n3c2=O)cc1 | – | > 100 µM | > 100 µM | > 100 µM | > 100 µM | > 100 µM | > 100 µM | > 100 µM | > 100 µM | – | – | – | – | – | – | – | – | > 71.6 µM | – | –
C=C(CS(=O)(=O)c1ccccc1)C(=O)OCC | – | 39.9 µM | 33.2 µM | 31.8 µM | – | 35 µM | 35 µM | 40 µM | 25.9 µM | – | – | – | – | – | – | – | – | – | – | –
O=c1c2cc(Br)ccc2[nH]c(=S)n1-c1ccccc1 | – | > 100 µM | > 100 µM | > 100 µM | > 100 µM | > 100 µM | > 100 µM | > 100 µM | > 100 µM | – | – | – | – | – | – | – | – | – | – | –
CC(C)(C)c1cc(Oc2ccc(C#N)c(C#N)c2)cc(C(C)(C)C)c1 | – | > 100 µM | > 100 µM | > 100 µM | > 100 µM | > 100 µM | > 100 µM | > 100 µM | > 100 µM | – | – | – | – | – | – | – | – | > 100 µM | – | –
C[N+](C)(C)CC(=O)N/N=C/c1oc(-c2cccc([N+](=O)[O-])c2)c(-c2cccc([N+](=O)[O-])c2)c1[N+](=O)[O-] | – | > 100 µM | > 100 µM | > 100 µM | > 100 µM | – | > 100 µM | > 100 µM | > 100 µM | – | – | – | – | – | – | – | – | > 100 µM | – | –
COc1ccc2oc(-c3cc4cc(OC)ccc4o3)cc2c1 | – | > 100 µM | – | > 100 µM | – | > 100 µM | > 100 µM | > 100 µM | > 100 µM | – | – | – | – | – | – | – | – | > 100 µM | – | –
O=c1[nH]cc(CO)c(=O)[nH]1 | – | – | > 100 µM | > 100 µM | > 100 µM | > 100 µM | > 100 µM | > 100 µM | > 100 µM | – | > 100 µM | > 100 µM | > 100 µM | > 100 µM | > 100 µM | > 100 µM | > 100 µM | > 100 µM | – | > 100 µM
O=C(N/N=C/c1ccncc1)c1ccc(C(F)(F)F)nc1Nc1cccc(C(F)(F)F)c1 | 6.83 µM | 8.87 µM | 9.5 µM | 11.6 µM | 10 µM | 11.7 µM | – | 7.36 µM | 10.6 µM | 2.59 µM | 2.6 µM | 2.52 µM | 2.91 µM | 0.804 µM | 2.55 µM | 3.78 µM | 1.82 µM | 8.2 µM | 1.39 µM | –
CCOc1ccc(/C=N\N2C(=O)c3ccccc3C2=O)cc1 | – | > 100 µM | > 100 µM | > 100 µM | > 100 µM | > 100 µM | > 100 µM | > 100 µM | > 100 µM | – | – | – | – | – | – | – | – | > 100 µM | – | –
COc1ccc(-c2nnc(Nc3nc(O)c(C4=c5cc(OC(F)(F)F)ccc5=NC4=O)s3)o2)cc1 | 87.1 µM | 71.7 µM | 30.7 µM | 58.2 µM | – | 80.4 µM | 39.3 µM | > 100 µM | 35.9 µM | 23.4 µM | 16.2 µM | 20.5 µM | – | 20.4 µM | > 100 µM | 13.2 µM | 26.6 µM | 47.7 µM | 31.6 µM | 20.3 µM
COc1cccc(C(C#N)NC23CC4CC(CC(C4)C2)C3)c1 (stereo unspecified) | > 100 µM | > 100 µM | > 100 µM | > 100 µM | – | > 100 µM | > 100 µM | > 100 µM | > 100 µM | – | – | – | – | – | – | – | – | > 100 µM | – | –
CN=c1ss/c(=N\C(=S)N(C)C)n1C1CCCCC1 | – | > 31.6 µM | > 100 µM | > 31.6 µM | > 31.6 µM | > 31.6 µM | > 31.6 µM | > 31.6 µM | > 31.6 µM | – | – | – | – | – | – | – | – | > 100 µM | – | –
CC1=C(C(=O)Nc2cccc(C(F)(F)F)c2)C(c2ccccc2F)C(C(=O)Nc2cccc(C(F)(F)F)c2)=C(C)N1 | – | 17.5 µM | 23.8 µM | 25.7 µM | 24.3 µM | – | 11 µM | – | 22.1 µM | – | – | – | – | – | – | – | – | 7.98 µM | – | –
